≈ marks a conversion by molar mass, not a printed value. Where two headings read alike, the source gives them in different places.
Assays:
[1] = Human liver microsomes T1/2; format: in vitro ADME; settings: human, liver microsomes; Table 4
BTK = BTK (Homo sapiens, UniProt Q06187); experiment: BTK covalent inhibition kinetics (KI, kinact, kinact/KI); format: biochemical; settings: for Ki / kinact: average of 2 independent determinations (± SD)
Method: The development of the structure-activity relationship was conducted by characterizing the non-covalent affinity of each inhibitor for BTK (KI) and the first order rate constant for irreversible covalent bond formation (kinact). The second order rate constant kinact/KI ratio is used to assess the covalent inhibitor potency because it is independent of incubation time and substrate concentrations (Copeland, R. A. Evaluation of Enzyme Inhibitors in Drug Discovery: a Guide for Medicinal Chemists and Pharmacologists; 2nd ed.; Wiley: Hoboken, N.J., 2013).

[2] = Aqueous solubility at pH 2 and pH 7; format: physicochemical; settings: aqueous medium, Table 4
[3] = aqueous buffer, pH 7, read-out: Solubility pH 7
[4] = simulated gastric fluid, pH 2, read-out: Solubility pH 2

BTK, sequence (Q06187 whole entry): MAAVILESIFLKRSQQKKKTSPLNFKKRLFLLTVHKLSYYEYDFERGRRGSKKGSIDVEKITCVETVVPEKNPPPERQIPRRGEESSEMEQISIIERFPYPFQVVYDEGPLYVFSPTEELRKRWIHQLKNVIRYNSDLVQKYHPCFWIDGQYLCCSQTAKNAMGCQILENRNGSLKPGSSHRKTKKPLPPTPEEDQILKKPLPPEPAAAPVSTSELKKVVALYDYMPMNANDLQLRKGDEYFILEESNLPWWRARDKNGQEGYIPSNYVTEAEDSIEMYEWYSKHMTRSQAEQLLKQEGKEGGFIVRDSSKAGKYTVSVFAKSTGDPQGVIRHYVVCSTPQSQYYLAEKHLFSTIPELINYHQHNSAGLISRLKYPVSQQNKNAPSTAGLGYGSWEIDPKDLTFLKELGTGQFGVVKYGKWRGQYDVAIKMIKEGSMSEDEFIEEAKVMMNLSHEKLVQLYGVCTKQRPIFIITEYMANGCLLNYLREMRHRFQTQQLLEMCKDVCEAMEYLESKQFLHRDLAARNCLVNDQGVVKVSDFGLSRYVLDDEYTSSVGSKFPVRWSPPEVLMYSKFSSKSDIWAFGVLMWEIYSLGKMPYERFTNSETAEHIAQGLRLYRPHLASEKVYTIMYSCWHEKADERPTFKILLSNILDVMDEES

Compound | half-life [1] | Ki (BTK; Table 4) | kinact (BTK; Table 4) | kinact/KI (BTK; Table 4, read-out: kinact/KI) | Solubility [2, 3] | Solubility [2, 4] | kinact/KI (BTK; text b354)
C=CC(=O)N1CCCC(NC(=O)c2sc3nccc4c3c2NC(=O)N4c2ccc(Oc3ccccc3)cn2)C1 (stereo not shown) [C] | < 4 min | 456 ± 7 nM | 0.000303 s⁻¹ | 664 ± 44 M⁻¹ s⁻¹ | 9 µM (≈ 4.87 µg/mL) | 10 µM (≈ 5.41 µg/mL) | –
C=CC(=O)N1CCCC(NC(=O)c2sc3nccc4c3c2NC(=O)N4c2ccc(Oc3ccccc3)cc2)C1 (stereo not shown) [Compound B] | < 4 min | 32 ± 20 nM | 0.00039 ± 0.00011 s⁻¹ | 13800 ± 5200 M⁻¹ s⁻¹ | < 4 µM | < 4 µM | 13800 M⁻¹ s⁻¹
C=CC(=O)N1CCCC(NC(=O)c2sc3nccc4c3c2NC(=O)N4c2cnc(Oc3ccccc3)cc2C)C1 (stereo not shown) [Compound F] | 5 min | 27.6 nM | 0.000352 s⁻¹ | 13000 ± 1700 M⁻¹ s⁻¹ | 7 µM (≈ 3.88 µg/mL) | 15 µM (≈ 8.32 µg/mL) | –

Reference: patent US20250163076A1, “SYNTHESIS OF BRUTON'S TYROSINE KINASE INHIBITORS” (JANSSEN PHARMACEUTICA NV, priority 2022, published 2025)
